Laboratory results reported in article PMC4122817, “Target Engagement Analysis and Link to Pharmacodynamic Endpoint for a Novel Class of CNS-penetrant and Efficacious p38α MAPK Inhibitors” (Journal of Neuroimmune Pharmacology, 2014).

Biological target: T1, p38α MAPK (Mus musculus, UniProt P47811)
T1 construct: gene Mapk14; endogenous p38α MAPK in the murine microglial BV-2 cell line
Assay: western blot of phosphorylated substrate MK2 in LPS-stimulated BV2 cells (pMSK1 IC50 […]); in vivo effect lost in p38α T106M knock-in mice
Type: cell-based

T1 sequence (P47811 2-360): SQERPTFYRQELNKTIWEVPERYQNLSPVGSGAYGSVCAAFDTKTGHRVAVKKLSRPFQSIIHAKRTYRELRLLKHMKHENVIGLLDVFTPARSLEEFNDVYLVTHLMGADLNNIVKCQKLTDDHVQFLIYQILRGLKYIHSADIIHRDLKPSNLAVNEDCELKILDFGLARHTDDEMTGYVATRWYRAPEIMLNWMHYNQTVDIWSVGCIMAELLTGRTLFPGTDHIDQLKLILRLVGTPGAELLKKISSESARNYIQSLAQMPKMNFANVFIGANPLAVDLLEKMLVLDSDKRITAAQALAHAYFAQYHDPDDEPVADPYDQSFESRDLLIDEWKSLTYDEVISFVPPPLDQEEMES

MW181
IC50: 1200 nM
